Measured values taken from PMC8592419 (PLoS ONE, 2021).
Converted amounts (≈) assume the structure as drawn. Where a SMILES comes first, the peptide text is derived from it.

Tests used:
[1] = tested on: human red blood cells (RBCs); assay: Hemolytic toxicity test; format: cell-based; conditions: for Hemolytic activities (%hemolysis): human RBCs, 1 h at 37°C, mean±SD of duplicates, two independent experiments
Description: For the hemolytic toxicity test, red blood cells (RBCs) from fresh blood samples of healthy volunteers were obtained by centrifugation at 1,000 rpm for 5 min. The cells were washed three times with sterile phosphate buffered saline (PBS) and adjusted into 1×10^8 cells/ml. AMPs were diluted with PPB in ranging from 6.25 to 400 μg/ml. Fifty microliters of the RBC suspensions and 50 μl of AMP solutions were added to 1.5 ml sterile microtubes, incubated for 1 h at 37°C and then centrifuged at 1,000 rpm for 5 min. The supernatants were transferred to new 96-well microtiter plates for measurement of the absorbance at 540 nm using a microplate reader. RBC suspensions treated with 2% (v/v) Triton X-100 and PBS solution were used as positive and negative controls. The percentages of hemolysis were calculated using the following formula: % of RBC lysis = 100 × [(Test—PBS) / (Positive control—PBS)]. All assays were performed in duplicate and two independent experiments.

[2] = tested on: human peripheral blood mononuclear cells (PBMCs); assay: PBMC toxicity, trypan blue exclusion assay; format: cell-based; conditions: 1 h at 37°C, mean±SD of duplicates, two independent experiments
Description: For the toxicity of the potential AMPs to human peripheral blood mononuclear cells (PBMCs), the trypan blue exclusion assay was used. Fresh human PBMCs were prepared from blood samples of healthy volunteers using the Ficoll density gradient technique. The cells were centrifuged at 1,800 rpm for 20 min at 20°C and washed three times with PBS and adjusted with RPMI-1640 medium into 6.25×10^5 cells/ml. Fifty microliters of PBMC suspension and 50 μl of AMP solutions (6.25–400 μg/ml) were added to the 96-well microtiter plates and incubated for 1 h at 37°C. Then, 20 μl of the samples were mixed with 20 μl of 0.4% (w/v) trypan blue solution (0.81% NaCl and 0.06% (w/v) dibasic potassium phosphate) in microtubes and incubated for 3 min at room temperature. The PBMC suspensions treated with PBS were used as negative controls. PBMCs were counted using a dual-chamber hemocytometer under a light microscope. Viable and non-viable cells were counted under a microscope and the percentage of viable cells was calculated using the following formula: % of viable cells = [1.00 –([…] / Number of total cells)] × 100. All assays were performed in duplicate with two independent experiments.

Mab ATCC19977 strain = format: cell-based, Mycobacterium abscessus
Description: (§1) Briefly, serial dilutions of the AMPs were prepared with potassium phosphate buffer (PPB) from the concentration range of 3.125 to 400 μg/ml and then 50 μl of each dilution were added to each 96-well plate. Colonies of the isolate were suspended and then further diluted in Mueller-Hinton broth to obtain a final concentration of 1×10^3 CFU/ml (optimized according to the available AMP stock concentration). Fifty microliters of this inoculum were added to each well of the plates. The plates were incubated for 3 days at 37°C. Plain media and bacterial suspensions without AMPs were used as negative and positive controls. The MIC values were read and recorded. All assays were performed in duplicate and two independent experiments.

[3] = tested on: M. abscessus clinical isolate MAB04; assay: In vitro antimicrobial susceptibility of potential AMPs, broth microdilution, 3 days; format: cell-based, M. abscessus subsp. abscessus; conditions: 3 days at 37°C
Description: as §1
(§2) For the in vitro antimicrobial susceptibility, the same protocol as described above was used. The culture plates were further incubated up to 3 days at 37°C. The MIC values were read and recorded.

[4] = tested on: M. abscessus clinical isolate MAB11; assay: as above; format: cell-based, M. abscessus subsp. abscessus; conditions: 3 days at 37°C
Description: as §1, §2

[5] = tested on: M. abscessus clinical isolate MAB07; assay: as above; format: cell-based, M. abscessus subsp. abscessus; conditions: 3 days at 37°C
Description: as §1, §2

[6] = tested on: M. abscessus clinical isolate MAB01; assay: as above; format: cell-based, M. abscessus subsp. abscessus; conditions: 3 days at 37°C
Description: as §1, §2

[7] = tested on: M. abscessus clinical isolate MAB09; assay: as above; format: cell-based, M. abscessus subsp. abscessus; conditions: 3 days at 37°C
Description: as §1, §2

[8] = tested on: M. abscessus clinical isolate MAB03; assay: as above; format: cell-based, M. abscessus subsp. abscessus; conditions: 3 days at 37°C
Description: as §1, §2

[9] = tested on: M. abscessus clinical isolate MAB08; assay: as above; format: cell-based, M. abscessus subsp. abscessus; conditions: 3 days at 37°C
Description: as §1, §2

[10] = tested on: M. abscessus clinical isolate MAB05; assay: as above; format: cell-based, M. abscessus subsp. abscessus; conditions: 3 days at 37°C
Description: as §1, §2

[11] = tested on: M. abscessus clinical isolate MAB10; assay: as above; format: cell-based, M. abscessus subsp. abscessus; conditions: 3 days at 37°C
Description: as §1, §2

[12] = tested on: M. abscessus clinical isolate MAB02; format: cell-based, M. abscessus subsp. abscessus; conditions: 3 days at 37°C
Description: as §1, §2

[13] = tested on: M. abscessus clinical isolate MAB06; format: cell-based, M. abscessus subsp. abscessus; conditions: 3 days at 37°C
Description: as §1, §2

[14] = tested on: M. abscessus clinical isolate MAB12; assay: In vitro antimicrobial susceptibility of potential AMPs, broth microdilution, 3 days; format: cell-based, M. abscessus subsp. massiliense; conditions: 3 days at 37°C
Description: as §1, §2

[15] = tested on: M. abscessus clinical isolate MAB16; assay: as above; format: cell-based, M. abscessus subsp. massiliense; conditions: 3 days at 37°C
Description: as §1, §2

[16] = tested on: M. abscessus clinical isolate MAB15; assay: as above; format: cell-based, M. abscessus subsp. massiliense; conditions: 3 days at 37°C
Description: as §1, §2

[17] = tested on: M. abscessus clinical isolate MAB14; assay: as above; format: cell-based, M. abscessus subsp. massiliense; conditions: 3 days at 37°C
Description: as §1, §2

[18] = tested on: clinical isolates of M. abscessus; assay: In vitro susceptibility of potential AMPs, 3 days, summary over isolates; format: cell-based, Mycobacterium abscessus; conditions: isolates MAB01 and MAB03
Description: as §1, §2

[19] = tested on: M. abscessus clinical isolate MAB13; format: cell-based, M. abscessus subsp. massiliense; conditions: 3 days at 37°C
Description: as §1, §2

[20] = tested on: sixteen clinical Mab isolates; assay: 24-hour bactericidal activity assay, summary over isolates; format: cell-based, Mycobacterium abscessus; conditions: majority of the tested strains (10/16 isolates); equivalent of <50 μg/ml
Description: as §1
Potential AMPs from the screening assays were subjected to determine the 24-hour bactericidal activity assays (corresponding to the common time of administration) with sixteen clinical Mab isolates using the protocol as described above. To observe the early antimicrobial activities, the plates were incubated for 24 h at 37°C. The samples from each well were further diluted in 0.05% Tween 80 and inoculated on Mueller-Hinton agar. After incubation for 3 days at 37°C, the colony-forming units (CFUs) were counted and calculated for the percentage of killing using the following formula: % killing = 1 - (CFU sample/ CFU control) ×100.

SMILES: CC(C)C[C@H](NC(=O)[C@H](CCCCN)NC(=O)[C@H](CC(C)C)NC(=O)[C@H](CC(C)C)NC(=O)[C@H](CC(C)C)NC(=O)[C@H](CC(C)C)NC(=O)[C@H](CC(C)C)NC(=O)[C@H](CCCCN)NC(=O)[C@H](CC(C)C)NC(=O)[C@@H](N)CCCCN)C(=O)O [KLK1] (H-KLKLLLLLKL-OH)
- Hemolytic activities (%hemolysis) ([1]; 6.25 µg/mL): 0.7±0.50%
- Hemolytic activities (%hemolysis) ([1]; 12.5 µg/mL): 4.93±2.49%
- Hemolytic activities (%hemolysis) ([1]; 25 µg/mL): 8.27±1.74%
- Hemolytic activities (%hemolysis) ([1]; 50 µg/mL): 12.15±0.25%
- Hemolytic activities (%hemolysis) ([1]; 100 µg/mL): 15.85±1.49%
- Hemolytic activities (%hemolysis) ([1]; 200 µg/mL): 18.13±0.25%
- Hemolytic activities (%hemolysis) ([1]; 400 µg/mL): 22.18±1.99%
- hemolysis at the MICs level ([1]; at the MICs level, single figure of the abstract): 10.21%
- Viable cells of PBMCs (% viable cells) ([2]; 6.25 µg/mL): 102.52±5.04%
- Viable cells of PBMCs (% viable cells) ([2]; 12.5 µg/mL): 100.00±2.95%
- Viable cells of PBMCs (% viable cells) ([2]; 25 µg/mL): 92.70±4.41%
- Viable cells of PBMCs (% viable cells) ([2]; 50 µg/mL): 94.34±2.80%
- Viable cells of PBMCs (% viable cells) ([2]; 100 µg/mL): 91.68±8.42%
- Viable cells of PBMCs (% viable cells) ([2]; 200 µg/mL): 65.81±4.51%
- Viable cells of PBMCs (% viable cells) ([2]; 400 µg/mL): 44.62±7.22%
- MIC values (Mab ATCC19977 strain): 400 µg/mL (≈ 335 µM)
- Antimicrobial peptides against M. abscessus isolates, MIC value [3]: >400 µg/mL
- Antimicrobial peptides against M. abscessus isolates, MIC value [4]: >400 µg/mL
- Antimicrobial peptides against M. abscessus isolates, MIC value [5]: >400 µg/mL
- Antimicrobial peptides against M. abscessus isolates, MIC value [6]: 25 µg/mL
- Antimicrobial peptides against M. abscessus isolates, MIC value [7]: >400 µg/mL
- Antimicrobial peptides against M. abscessus isolates, MIC value [8]: 50 µg/mL
- Antimicrobial peptides against M. abscessus isolates, MIC value [9]: >400 µg/mL
- Antimicrobial peptides against M. abscessus isolates, MIC value [10]: >400 µg/mL
- Antimicrobial peptides against M. abscessus isolates, MIC value [11]: >400 µg/mL
- Antimicrobial peptides against M. abscessus isolates, MIC value [12]: >400 µg/mL
- Antimicrobial peptides against M. abscessus isolates, MIC value [13]: >400 µg/mL
- Antimicrobial peptides against M. abscessus isolates, MIC value [14]: >400 µg/mL
- Antimicrobial peptides against M. abscessus isolates, MIC value [15]: >400 µg/mL
- Antimicrobial peptides against M. abscessus isolates, MIC value [16]: >400 µg/mL
- Antimicrobial peptides against M. abscessus isolates, MIC value [17]: >400 µg/mL
- MIC values after 3 days [18]: 20.93 to 41.85 µM
- Antimicrobial peptides against M. abscessus isolates, MIC value [19]: >400 µg/mL
- MIC with ~99% killed within 24 h [20]: < 41.85 µM
